Laboratory results as given in US8420676B2, “Oxazolidinone derivatives” (Dong-A Pharmaceuticals Co. Ltd., priority 2003, dated 2013).
Converted amounts (≈) assume the structure as drawn.

Assays:
[1] = system: vancomycin resistant Enterococci (VRE); assay: Assay for in vitro antibacterial activity, agar dilution (VRE); settings: Enterococcus, read-out: Minimum Inhibitory Concentration (MIC50) VRE
[2] = system: methicillin resistant Staphylococcus aureus (MRSA); assay: Assay for in vitro antibacterial activity, agar dilution (MRSA); settings: read-out: Minimum Inhibitory Concentration (MIC50) MRSA

| MIC50 [1] [µg/mL] | MIC50 [2] [µg/mL] | SMILES |
| --- | --- | --- |
| 8 (≈ 20.1 µM) | 4 (≈ 10.1 µM) | CN(C)CC1CN(c2ccc(-c3ccc(-c4nnn(C)n4)nc3)c(F)c2)C(=O)O1 (stereo in doubt) [Compound 40, (R)-3-(4-(2-(2-methyltetrazol-5-yl)pyridin-5-yl)-3-fluorophenyl)-5-(N,N-dimethylaminomethyl)oxazolidin-2-one] |
| 2 (≈ 4.75 µM) | 2 (≈ 4.75 µM) | Cn1nnc(-c2ccc(-c3ccc(N4C[C@H](Cn5cncn5)OC4=O)cc3F)cn2)n1 [Compound 4, (R)-3-(4-(2-(2-methyltetrazol-5-yl)pyridin-5-yl)-3-fluorophenyl)-5-([1,2,4]triazol-1-yl)methyl oxazolidin-2-one] |
| 16 (≈ 38 µM) | 16 (≈ 38 µM) | Cn1nnc(-c2ccc(-c3ccc(N4C[C@H](Cn5nccn5)OC4=O)cc3F)cn2)n1 [Compound 8, (R)-3-(4-(2-(2-methyltetrazol-5-yl)pyridin-5-yl)-3-fluorophenyl)-5-([1,2,3]triazol-2-yl)methyl oxazolidin-2-one] |
| 0.125 (≈ 0.297 µM) | 0.25 (≈ 0.593 µM) | Cn1nnc(-c2ccc(-c3ccc(N4C[C@H](Cn5ccnn5)OC4=O)cc3F)cn2)n1 [Compound 9, (R)-3-(4-(2-(2-methyltetrazol-5-yl)pyridin-5-yl)-3-fluorophenyl)-5-([1,2,3]triazol-1-yl)methyl oxazolidin-2-one] |
| 0.25 (≈ 0.59 µM) | 0.5 (≈ 1.18 µM) | CC(=O)NC[C@H]1CN(c2ccc(-c3ccc(-c4nc(C)c(C)o4)cc3)c(F)c2)C(=O)O1 [Compound 11, (S)-3-(4-(4-(4,5-dimethyloxazol-2-yl)phenyl)-3-fluorophenyl)-2-oxo-5-oxazolidinylmethyl acetamide] |
| 0.25 (≈ 0.593 µM) | 0.25 (≈ 0.593 µM) | Cc1nnc(-c2ccc(-c3ccc(N4C[C@H](Cn5ccnn5)OC4=O)cc3F)cn2)o1 [Compound 13, (R)-3-(4-(2-(2-methyl-[1,3,4]oxadiazol-5-yl)pyridin-5-yl)-3-fluorophenyl)-5-([1,2,3]triazol-1-yl)methyl oxazolidin-2-one] |
| 0.25 (≈ 0.615 µM) | 0.25 (≈ 0.615 µM) | O=C1O[C@@H](Cn2ccnn2)CN1c1ccc(-c2ccc(-n3cncn3)nc2)c(F)c1 [Compound 14, (R)-3-(4-(2-([1,2,4]triazol-1-yl)pyridin-5-yl)-3-fluorophenyl)-5-([1,2,3]triazol-1-yl)methyl oxazolidin-2-one] |
| 1 (≈ 2.36 µM) | 1 (≈ 2.36 µM) | CC(=O)NC[C@H]1CN(c2ccc(-c3ccc(-c4nc(C)c(C)o4)nc3)c(F)c2)C(=O)O1 [Compound 15] |
| 2 (≈ 5.37 µM) | 1 (≈ 2.69 µM) | Cn1nnc(-c2ccc(-c3ccc(N4C[C@H](CF)OC4=O)cc3F)cn2)n1 [Compound 18, (R)-3-(4-(2-(2-methyltetrazol-5-yl)pyridin-5-yl)-3-fluorophenyl)-5-fluoromethyl oxazolidin-2-one] |
| 32 | 32 | Cl.NC[C@H]1CN(c2ccc(-c3ccc(-n4ccnc4)nc3)c(F)c2)C(=O)O1 [Compound 19, (S)-3-(4-(2-(imidazole-1-yl)pyridin-5-yl)-3-fluorophenyl)-5-aminomethyl oxazolidin-2-one hydrochloride] |
| 1 (≈ 2.62 µM) | 1 (≈ 2.62 µM) | Cc1nc(-c2ccc(-c3ccc(N4C[C@H](CO)OC4=O)cc3F)cc2)oc1C [Compound 21, (R)-3-(4-(4-(4,5-dimethyloxazol-2-yl)phenyl)-3-fluorophenyl)-5-hydroxymethyl oxazolidin-2-one] |
| 0.125 (≈ 0.315 µM) | 0.25 (≈ 0.631 µM) | CC(=O)NC[C@H]1CN(c2ccc(-c3ccc(-n4nccn4)nc3)c(F)c2)C(=O)O1 [Compound 25, (S)-3-(4-(2-([1,2,3]triazol-2-yl)pyridin-5-yl)-3-fluorophenyl)-2-oxo-5-oxazolidinylmethyl acetamide] |
| 0.5 (≈ 1.17 µM) | 0.5 (≈ 1.17 µM) | CC(=O)NC[C@H]1CN(c2ccc(-c3ccc(C4=NC(CO)CO4)cc3)c(F)c2)C(=O)O1 (stereo partly drawn) [Compound 26, (S)-3-(4-(4-(4(S)-hydroxymethyl-4,5-dihydroxazole-2-yl)phenyl)-3-fluorophenyl)-2-oxo-5-oxazolidinylmethyl acetamide] |
| 0.5 (≈ 1.13 µM) | 0.5 (≈ 1.13 µM) | CC(=O)NC[C@H]1CN(c2ccc(-c3ccc(-c4nc(CO)cs4)cc3)c(F)c2)C(=O)O1 [Compound 28, (S)-3-(4-(4-(4-hydroxymethylthiazol-2-yl)phenyl)-3-fluorophenyl)-2-oxo-5-oxazolidinylmethyl acetamide] |
| 1 (≈ 2.81 µM) | 0.5 (≈ 1.41 µM) | O=C1O[C@@H](CO)CN1c1ccc(-c2ccc(-n3nccn3)nc2)c(F)c1 [Compound 29, (R)-3-(4-(2-([1,2,3]triazol-2-yl)pyridin-5-yl)-3-fluorophenyl)-5-hydroxymethyl oxazolidin-2-one] |
| 0.5 (≈ 1.11 µM) | 0.5 (≈ 1.11 µM) | CC(=O)NC[C@H]1CN(c2ccc(-c3ccc(-c4nc(CC#N)cs4)cc3)c(F)c2)C(=O)O1 [Compound 31, (S)-3-(4-(4-(4-cyanomethylthiazol-2-yl)phenyl)-3-fluorophenyl)-2-oxo-5-oxazolidinylmethyl acetamide] |
| 1 (≈ 2.44 µM) | 0.5 (≈ 1.22 µM) | N#CCc1csc(-c2ccc(-c3ccc(N4C[C@H](CO)OC4=O)cc3F)cc2)n1 [Compound 32, (R)-3-(4-(4-(4-cyanomethylthiazol-2-yl)phenyl)-3-fluorophenyl)-5-hydroxymethyl oxazolidin-2-one] |
| 2 (≈ 5.2 µM) | 2 (≈ 5.2 µM) | COC[C@H]1CN(c2ccc(-c3ccc(-c4nnn(C)n4)nc3)c(F)c2)C(=O)O1 [Compound 33, (R)-3-(4-(2-(2-methyltetrazol-5-yl)pyridin-5-yl)-3-fluorophenyl)-5-methoxymethyl oxazolidin-2-one] |
| 0.5 (≈ 1.11 µM) | 0.5 (≈ 1.11 µM) | O=C1O[C@@H](Cn2ccnn2)CN1c1ccc(-c2ccc(-c3nc(CO)cs3)cc2)c(F)c1 [Compound 36, (R)-3-(4-(4-(4-hydroxymethylthiazol-2-yl)phenyl)-3-fluorophenyl)-5-([1,2,3]triazol-1-yl)methyl oxazolidin-2-one] |
| 1 (≈ 2.58 µM) | 0.5 (≈ 1.29 µM) | Cn1nnc(-c2ccc(-c3c(F)cc(N4C[C@H](CO)OC4=O)cc3F)cn2)n1 [Compound 38, (R)-3-(4-(2-(2-methyltetrazol-5-yl)pyridin-5-yl)-3,5-difluorophenyl)-5-hydroxymethyl oxazolidin-2-one] |

| SMILES | MIC50 [1] [µg/mL] | MIC50 [2] [µg/mL] |
| --- | --- | --- |
| CC(=O)NC[C@H]1CN(c2ccc(-c3ccc(N4CC(COC(=O)CN)CC4=O)nc3)c(F)c2)C(=O)O1 (stereo partly drawn) [Compound 1, (S)-3-(4-(2-(2-oxo-4-glycyloxymethylpylolidin-1-yl)pyridin-5-yl)-3-fluorophenyl)-2-oxo-5-oxazolidinylmethyl acetamide trifluoroacetic acid] | 0.25 (≈ 0.501 µM) | 1 (≈ 2 µM) |
| CC(=O)NC[C@H]1CN(c2ccc(-c3ccc(-n4cc(COC(=O)CN)nn4)nc3)c(F)c2)C(=O)O1 [Compound 2, (S)-3-(4-(2-(4-glycyloxymethyl-1,2,3-triazol-1-yl)pyridin-5-yl)-3-fluorophenyl)-2-oxo-5-oxazolidinylmethyl acetamide trifluoroacetic acid] | 0.125 (≈ 0.259 µM) | 0.5 (≈ 1.03 µM) |
| CC(=O)NC[C@H]1CN(c2ccc(-c3ccc(-c4cc(COC(=O)CN)on4)nc3)c(F)c2)C(=O)O1 [Compound 3, (S)-3-(4-(2-(5-glycyloxymethylisoxazol-3-yl)pyridin-5-yl)-3-fluorophenyl)-2-oxo-5-oxazolidinylmethyl acetamide trifluoroacetic acid] | 0.25 (≈ 0.517 µM) | 0.25 (≈ 0.517 µM) |
| CC(=O)NC[C@H]1CN(c2ccc(-c3ccc(N4CCC(OC(=O)CN)C4=O)nc3)c(F)c2)C(=O)O1 (stereo partly drawn) [Compound 5, (S)-3-(4-(2-(2-oxo-3-glycyloxypyrrolidine-1-yl)pyridin-5-yl)-3-fluorophenyl)-2-oxo-5-oxazolidinylmethyl acetamide trifluoroacetic acid] | 0.25 (≈ 0.515 µM) | 0.5 (≈ 1.03 µM) |
| CC(=O)NC[C@H]1CN(c2ccc(-c3ccc(C4=NOC(COC(=O)CN)C4)nc3)c(F)c2)C(=O)O1 (stereo partly drawn) [Compound 7, (S)-3-(4-(2-(5-glycyloxymethyl-4,5-dihydroisoxazole-3-yl)pyridin-5-yl)-3-fluorophenyl)-2-oxo-5-oxazolidinylmethyl acetamide trifluoroacetic acid] | 0.5 (≈ 1.03 µM) | 0.5 (≈ 1.03 µM) |
| Cc1nc(-c2ccc(-c3ccc(N4C[C@H](COC(=O)CN)OC4=O)cc3F)cc2)oc1C [Compound 23, (R)-3-(4-(4-(4,5-dimethyloxazol-2-yl)phenyl)-3-fluorophenyl)-5-glycyloxymethyl oxazolidin-2-one trifluoroacetic acid] | 2 (≈ 4.55 µM) | 2 (≈ 4.55 µM) |
| CC(=O)NC[C@H]1CN(c2ccc(-c3ccc(-c4nc(COC(=O)CN)cs4)cc3)c(F)c2)C(=O)O1 [Compound 30, (S)-3-(4-(4-(4-glycyloxymethylthiazol-2-yl)phenyl)-3-fluorophenyl)-2-oxo-5-oxazolidinylmethyl acetamide trifluoroacetic acid] | 0.5 (≈ 1 µM) | 0.5 (≈ 1 µM) |
| N#CCc1csc(-c2ccc(-c3ccc(N4C[C@H](COC(=O)CN)OC4=O)cc3F)cc2)n1 [Compound 34, (R)-3-(4-(4-(4-cyanomethylthiazol-2-yl)phenyl)-3-fluorophenyl)-5-glycyloxymethyl oxazolidin-2-one trifluoroacetic acid] | 1 (≈ 2.14 µM) | 1 (≈ 2.14 µM) |
| NCC(=O)OC[C@H]1CN(c2ccc(-c3ccc(-n4nccn4)nc3)c(F)c2)C(=O)O1 [Compound 35, (R)-3-(4-(2-([1,2,3]triazol-2-yl)pyridin-5-yl)-3-fluorophenyl)-5-glycyloxymethyl oxazolidin-2-one trifluoroacetic acid] | 1 (≈ 2.42 µM) | 1 (≈ 2.42 µM) |
| NCC(=O)OCc1csc(-c2ccc(-c3ccc(N4C[C@H](Cn5ccnn5)OC4=O)cc3F)cc2)n1 [Compound 37, (R)-3-(4-(4-(4-glycyloxymethylthiazol-2-yl)phenyl)-3-fluorophenyl)-5-([1,2,3]triazol-1-yl)methyl oxazolidin-2-one trifluoroacetic acid] | 0.5 (≈ 0.983 µM) | 0.5 (≈ 0.983 µM) |
